The record followed here is ChEMBL document CHEMBL2311351, “Synthesis and biological evaluation of triazolothienopyrimidine derivatives as novel HIV-1 replication inhibitors” (Bioorg Med Chem Lett, 2013).

Data set [1] relates to Human immunodeficiency virus 1. Nature of the data set: Antiviral activity against HIV1 LAI infected in CEMx174-LTR-GFP cells assessed as inhibition of viral replication after 5 days by fluorescence assay. In kind it is functional, organism-based.
Data set [2] can be described thus: Cytotoxicity against human CEmx174 cells expressing LTR-GFP. In kind it is cell-based.
The nature of data set [3]: Therapeutic index, ratio of CC50 for human CEmx174 cells expressing LTR-GFP to EC50 for HIV1 LAI. The note with it: read-out: Ratio CC50/EC50.
In data set [4] the test system is Human immunodeficiency virus 1. Nature of the data set: Antiviral activity against HIV1 LAI infected in CEMx174-LTR-GFP cells assessed as inhibition of viral replication at 10 uM after 5 days by fluorescence assay. The conditions noted are these: Human immunodeficiency virus 1, LAI, 120 h. In kind it is functional.
Setting [5] is: Human immunodeficiency virus 1, LAI, 120 h, read-out: EC50.

As to `O=C(Nc1ccccc1Cl)c1nnn2c1nc(N1CCOCC1)c1sccc12`, the EC50 in data set [1] (setting [5]) turned out to be 3.5 µM. This compound also had a CC50 in data set [2] of more than 50 µM. Also, in data set [3], the selectivity ratio is more than 14.

Regarding `CCOc1ccc(-c2nc3c(S(=O)(=O)c4cccc(Cl)c4)nnn3c3ccsc23)cc1`, the EC50 in data set [1] (setting [5]) turned out to be 0.51 µM. The compound further gave a CC50 in data set [2] of 61 µM. Further, in data set [3], the selectivity ratio turned out to be 119.

`CCS(=O)(=O)c1nnn2c1nc(N1CCOCC1)c1sccc12`: the EC50 entry in data set [1] is given as “Not Active”. The compound further gave a CC50 in data set [2] of more than 50 µM.

With `CC(C)CCNc1nc2c(S(=O)(=O)c3cccc(Cl)c3)nnn2c2ccsc12`, the inhibition at 10 µM in data set [4] is 58%.

Consider `O=S(=O)(c1cc(Cl)cc(Cl)c1)c1nnn2c1nc(N1CCOCC1)c1sccc12`, for which the EC50 in data set [1] (setting [5]) came out at 4 µM. In addition, the CC50 in data set [2] is 51 µM. Also, the selectivity ratio in data set [3] came out at 12.7.

On to `O=S(=O)(c1cccc(Cl)c1)c1nnn2c1nc(N1CCCCC1)c1sccc12`, for which, in data set [1] (setting [5]), the half-maximal effective concentration (EC50) worked out at 0.19 µM. Half-maximal cytotoxicity in data set [2] (CC50) was put at 75 µM. The selectivity ratio in data set [3] worked out at 394.

Regarding `COc1cccc(-c2nc3c(S(=O)(=O)c4cccc(Cl)c4)nnn3c3ccsc23)c1`, the EC50 in data set [1] (setting [5]) came out at 0.32 µM. The compound further came in with a cytotoxic concentration (CC50) in data set [2] of 46 µM. The selectivity ratio in data set [3] was determined as 143.

Turning to `COc1cccc(S(=O)(=O)c2nnn3c2nc(N2CCOCC2)c2sccc23)c1`, the half-maximal effective concentration (EC50) in data set [1] (setting [5]) was found to be 1.1 µM. Moreover, the CC50 in data set [2] was more than 50 µM. Further, the selectivity ratio in data set [3] was more than 45.

For the compound `O=S(=O)(c1cccc(Cl)c1)c1nnn2c1nc(N1CCCCCC1)c1sccc12`, in data set [1] (setting [5]), the EC50 turned out to be 4 µM. The compound further displayed a half-maximal cytotoxic concentration (CC50) in data set [2] of 35 µM. For the same compound, in data set [3], the selectivity ratio came to 8.7.

On to `O=S(=O)(c1cccc(Cl)c1)c1nnn2c1nc(-c1ccc(Cl)cc1)c1sccc12`, for which the EC50 in data set [1] (setting [5]) came out at 0.53 µM. In data set [2], this compound gave a CC50 of 46 µM. Besides, the selectivity ratio in data set [3] was 86.

Regarding `O=S(=O)(c1cccc(Cl)c1)c1nnn2c1nc(-c1ccccc1)c1sccc12`, the EC50 in data set [1] (setting [5]) stood at 0.27 µM. The same compound showed a CC50 in data set [2] of 61 µM. The selectivity ratio in data set [3] is 225.

Regarding `O=S(=O)(c1ccccc1Cl)c1nnn2c1nc(N1CCOCC1)c1sccc12`, the EC50 in data set [1] (setting [5]) was 1.1 µM. Further, in data set [2], the CC50 amounted to 56 µM. Moreover, the selectivity ratio in data set [3] worked out at 50.

For `Nc1nc2c(S(=O)(=O)c3cccc(Cl)c3)nnn2c2ccsc12`, the EC50 in data set [1] (setting [5]) was 1.6 µM. The half-maximal cytotoxic concentration (CC50) in data set [2] was more than 50 µM. Besides, the selectivity ratio in data set [3] was more than 31.

As for `COCCNc1nc2c(S(=O)(=O)c3cccc(Cl)c3)nnn2c2ccsc12`, the EC50 in data set [1] (setting [5]) stood at 1.9 µM. In data set [2], this compound registered a CC50 of more than 50 µM. Further, in data set [3], the selectivity ratio is more than 26.

Regarding `O=S(=O)(c1ccccc1)c1nnn2c1nc(N1CCOCC1)c1sccc12`, the EC50 in data set [1] (setting [5]) amounted to 16 µM. The compound also returned a CC50 in data set [2] of 39 µM. The selectivity ratio in data set [3] is 2.4.

For the compound `O=S(=O)(c1ccc(Cl)cc1)c1nnn2c1nc(N1CCOCC1)c1sccc12`, the EC50 in data set [1] (setting [5]) came to 5 µM. Further, in data set [2], the cytotoxic concentration (CC50) is 70 µM. Also, the selectivity ratio in data set [3] came out at 14.

Regarding `O=C(Nc1cccc(Cl)c1)c1nnn2c1nc(N1CCOCC1)c1sccc12`, the EC50 in data set [1] (setting [5]) was found to be 0.37 µM. In addition, the CC50 in data set [2] is more than 50 µM. In addition, the selectivity ratio in data set [3] is more than 135.

Consider `O=S(=O)(c1cccc(Cl)c1)c1nnn2c1nc(N1CCN(Cc3ccccc3)CC1)c1sccc12`, for which, in data set [1] (setting [5]), the EC50 came to 0.71 µM. This compound had a CC50 in data set [2] of more than 50 µM. Moreover, the selectivity ratio in data set [3] was more than 70.

As to `O=C(O)c1nnn2c1nc(N1CCOCC1)c1sccc12`, in data set [1] (setting [5]), the EC50 was determined as 4.8 µM. Moreover, in data set [2], the CC50 came to 42 µM. Further, the selectivity ratio in data set [3] was 8.7.

Consider `O=S(=O)(c1cccc(Cl)c1)c1nnn2c1nc(-c1cccc(Cl)c1)c1sccc12`, for which the EC50 in data set [1] (setting [5]) is 0.54 µM. Also, it took 47 µM to reach half-maximal cytotoxicity in data set [2] (CC50). Besides, the selectivity ratio in data set [3] was found to be 87.

With `Cc1ccc(-c2nc3c(S(=O)(=O)c4cccc(Cl)c4)nnn3c3ccsc23)cc1`, in data set [1] (setting [5]), the EC50 worked out at 0.84 µM. The same compound returned a CC50 in data set [2] of 61 µM. Further, in data set [3], the selectivity ratio amounted to 72.

Consider `O=S(=O)(c1cccc(Cl)c1)c1nnn2c1nc(N1CCOCC1)c1sccc12`, for which the EC50 in data set [1] (setting [5]) came out at 0.27 µM. The compound also returned a cytotoxic concentration (CC50) in data set [2] of 74 µM. The selectivity ratio in data set [3] came out at 274.

For `CN1CCN(c2nc3c(S(=O)(=O)c4cccc(Cl)c4)nnn3c3ccsc23)CC1`, in data set [1] (setting [5]), the EC50 stood at 2.1 µM. In data set [2], the CC50 was more than 50 µM. For the same compound, in data set [3], the selectivity ratio was more than 23.

For the compound `O=S(=O)(c1cccc(Cl)c1)c1nnn2c1nc(Nc1ccccc1)c1sccc12`, the EC50 in data set [1] (setting [5]) was 2.3 µM. For the same compound, the CC50 in data set [2] was more than 50 µM. Also, the selectivity ratio in data set [3] was more than 21.

Regarding `O=C(c1cccc(Cl)c1)c1nnn2c1nc(N1CCOCC1)c1sccc12`, the concentration giving a half-maximal response (EC50) in data set [1] (setting [5]) was found to be 0.93 µM. In data set [2], this compound displayed a CC50 of more than 50 µM. Also, the selectivity ratio in data set [3] is more than 53.

For `O=S(=O)(c1cccc(Cl)c1)c1nnn2c1nc(-c1ccccc1Cl)c1sccc12`, the EC50 in data set [1] (setting [5]) stood at 0.67 µM. This compound had a CC50 in data set [2] of more than 50 µM. Further, in data set [3], the selectivity ratio is more than 74.

On to `CN(C)c1ccc(-c2nc3c(S(=O)(=O)c4cccc(Cl)c4)nnn3c3ccsc23)cc1`, for which the EC50 in data set [1] (setting [5]) was found to be 3.1 µM. The compound also came in with a CC50 in data set [2] of more than 50 µM. The selectivity ratio in data set [3] was more than 16.

Consider `O=S(=O)(c1cccc(Cl)c1)c1nnn2c1nc(-c1ccc(O)cc1)c1sccc12`, for which, in data set [1] (setting [5]), the EC50 was 0.87 µM. In addition, the CC50 in data set [2] was 10 µM. Also, in data set [3], the selectivity ratio came out at 11.

Turning to `O=S(=O)(c1cccc(F)c1)c1nnn2c1nc(N1CCOCC1)c1sccc12`, the concentration for a half-maximal effect (EC50) in data set [1] (setting [5]) stood at 0.85 µM. In addition, the CC50 in data set [2] was more than 50 µM. In addition, the selectivity ratio in data set [3] was more than 58.

`COc1ccc(-c2nc3c(S(=O)(=O)c4cccc(Cl)c4)nnn3c3ccsc23)cc1`: the EC50 in data set [1] (setting [5]) was determined as 0.06 µM. In addition, the midpoint of cytotoxicity in data set [2], the CC50, lay at 60 µM. Moreover, the selectivity ratio in data set [3] was found to be 1000.

For `CC(C)Nc1nc2c(S(=O)(=O)c3cccc(Cl)c3)nnn2c2ccsc12`, in data set [1] (setting [5]), the EC50 was 2.2 µM. The same compound came in with a CC50 in data set [2] of more than 50 µM. Besides, the selectivity ratio in data set [3] was more than 22.

In the case of `Cc1ccnc2c1NC(=O)c1cccnc1N2C1CC1` [NEVIRAPINE], the EC50 in data set [1] (setting [5]) stood at 0.15 µM. This compound also had a CC50 in data set [2] of more than 10 µM.

Turning to `CN(c1ccccc1)c1nc2c(S(=O)(=O)c3cccc(Cl)c3)nnn2c2ccsc12`, the EC50 in data set [1] (setting [5]) came to 2.1 µM. In data set [2], the 50% cytotoxic concentration (CC50) is more than 50 µM. Further, in data set [3], the selectivity ratio was more than 23.

Turning to `O=S(=O)(c1cccc(Br)c1)c1nnn2c1nc(N1CCOCC1)c1sccc12`, the concentration giving a half-maximal response (EC50) in data set [1] (setting [5]) is 3.3 µM. In data set [2], this compound displayed a CC50 of more than 50 µM. Also, the selectivity ratio in data set [3] was more than 15.

`CCOC(=O)c1nnn2c1nc(N1CCOCC1)c1sccc12`: the concentration for a half-maximal effect (EC50) in data set [1] (setting [5]) was 0.8 µM. Further, the CC50 in data set [2] is more than 50 µM. The selectivity ratio in data set [3] was more than 62.

Regarding `O=S(=O)(c1cccc(Cl)c1)c1nnn2c1nc(NC1CCCCC1)c1sccc12`, the EC50 in data set [1] (setting [5]) came out at 6.7 µM. In data set [2], this compound displayed a CC50 of more than 50 µM. The selectivity ratio in data set [3] is more than 7.4.

In the case of `O=C(Nc1ccc(Cl)cc1)c1nnn2c1nc(N1CCOCC1)c1sccc12`, in data set [1] (setting [5]), the EC50 was found to be 16 µM. In data set [2], the CC50 was 57 µM. The selectivity ratio in data set [3] turned out to be 3.5.

As to `COc1ccccc1-c1nc2c(S(=O)(=O)c3cccc(Cl)c3)nnn2c2ccsc12`, the EC50 in data set [1] (setting [5]) is 1.3 µM. Moreover, the CC50 in data set [2] stood at 45 µM. Also, the selectivity ratio in data set [3] was determined as 34.

Regarding `O=S(=O)(c1cccc(OC(F)(F)F)c1)c1nnn2c1nc(N1CCOCC1)c1sccc12`, the EC50 in data set [1] (setting [5]) was 10 µM. Further, in data set [2], the CC50 was more than 50 µM. The selectivity ratio in data set [3] was more than 5.

On to `Cc1ccc(S(=O)(=O)c2nnn3c2nc(NCCC(C)C)c2sccc23)cc1C`, for which the EC50 in data set [1] (setting [5]) was found to be 9.84 µM.

As to `O=S(=O)(c1nnn2c1nc(N1CCOCC1)c1sccc12)C1CCCCC1`, in data set [1], the EC50 result is on record as “Not Active”. The compound further yielded a CC50 in data set [2] of more than 50 µM.

The term EC50 denotes the midpoint of the concentration-response curve. As a reminder, the CC50 is the concentration at which the toxic effect on the cells reaches its halfway point. A lower CC50 goes with harm at low concentration. As usually defined, the inhibition is how much of the control response was suppressed.
